Assay results published in PubChem BioAssay AID2060487 (Molecular Pharmacology Branch, DTP, NCI, 2025).
pIC50: −log10 of the molar value.

Test system: 997537-175-T-J1-PDC complex spheroid viability
Assay: Anticancer human tumor 997537-175-T-J1-PDC patient-derived colon adenocarcinoma cell line growth inhibition [GQUAD]
Details: for pIC50: curve of first compound; for viability, T/C: stronger effect = lower value
How it was run: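 Viability of tumor cells grown as complex spheroids with endothelial and stromal cells, exposed to drug combinations. Top concentration at or near clinical Cmax (else 10 microM), diluted in half-log increments.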

[1] = second compound 0.0316 µM, first compound 0.0316 µM
[2] = second compound 0.0316 µM, first compound 0.1 µM
[3] = second compound 0.0316 µM, first compound 0.316 µM
[4] = second compound 0.0316 µM, first compound 1 µM
[5] = second compound 0.0316 µM, first compound 3.16 µM
[6] = second compound 0.0316 µM, first compound 10 µM
[7] = second compound 0.1 µM, first compound 0.0316 µM
[8] = second compound 0.1 µM, first compound 0.1 µM
[9] = second compound 0.1 µM, first compound 0.316 µM
[10] = second compound 0.1 µM, first compound 1 µM
[11] = second compound 0.1 µM, first compound 3.16 µM
[12] = second compound 0.1 µM, first compound 10 µM
[13] = second compound 0.316 µM, first compound 0.0316 µM
[14] = second compound 0.316 µM, first compound 0.1 µM
[15] = second compound 0.316 µM, first compound 0.316 µM
[16] = second compound 0.316 µM, first compound 1 µM
[17] = second compound 0.316 µM, first compound 3.16 µM
[18] = second compound 0.316 µM, first compound 10 µM
[19] = second compound 1 µM, first compound 0.0316 µM
[20] = second compound 1 µM, first compound 0.1 µM
[21] = second compound 1 µM, first compound 0.316 µM
[22] = second compound 1 µM, first compound 1 µM
[23] = second compound 1 µM, first compound 3.16 µM
[24] = second compound 1 µM, first compound 10 µM
[25] = second compound 3.16 µM, first compound 0.0316 µM
[26] = second compound 3.16 µM, first compound 0.1 µM
[27] = second compound 3.16 µM, first compound 0.316 µM
[28] = second compound 3.16 µM, first compound 1 µM
[29] = second compound 3.16 µM, first compound 3.16 µM
[30] = second compound 3.16 µM, first compound 10 µM
[31] = second compound 10 µM, first compound 0.0316 µM
[32] = second compound 10 µM, first compound 0.1 µM
[33] = second compound 10 µM, first compound 0.316 µM
[34] = second compound 10 µM, first compound 1 µM
[35] = second compound 10 µM, first compound 3.16 µM
[36] = second compound 10 µM, first compound 10 µM
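Also: spheroids exposed to the agents for 7 days.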
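For viability, T/C in this document: 100% = DMSO vehicle control viability.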

Structure (SMILES): Cc1cccc(N(C)C(=O)C2C(O)CCN2c2nc(C)cc(C(F)(F)F)c2C#N)c1 (centres undefined) + Cc1cnc(CNC(=O)c2c(=O)c3ccc(N4CCCN(C)CC4)nc3n3c2sc2ccccc23)cn1
- pIC50 (second compound 0.0316 µM): < 5.00
- pIC50 (second compound 0.1 µM): < 5.00
- pIC50 (second compound 0.316 µM): < 5.00
- pIC50 (second compound 1 µM): < 5.00
- pIC50 (second compound 3.16 µM): < 5.00
- pIC50 (second compound 10 µM): < 5.00
- viability, T/C [1]: 82.4%
- viability, T/C [2]: 80.5%
- viability, T/C [3]: 89.2%
- viability, T/C [4]: 97.2%
- viability, T/C [5]: 82.3%
- viability, T/C [6]: 98.5%
- viability, T/C [7]: 102%
- viability, T/C [8]: 94.2%
- viability, T/C [9]: 94.2%
- viability, T/C [10]: 67%
- viability, T/C [11]: 88.6%
- viability, T/C [12]: 92.4%
- viability, T/C [13]: 93.7%
- viability, T/C [14]: 75.2%
- viability, T/C [15]: 99.5%
- viability, T/C [16]: 73.8%
- viability, T/C [17]: 112%
- viability, T/C [18]: 84.3%
- viability, T/C [19]: 94.6%
- viability, T/C [20]: 98.5%
- viability, T/C [21]: 87.8%
- viability, T/C [22]: 88.4%
- viability, T/C [23]: 106%
- viability, T/C [24]: 99.7%
- viability, T/C [25]: 77.3%
- viability, T/C [26]: 103%
- viability, T/C [27]: 96%
- viability, T/C [28]: 93.4%
- viability, T/C [29]: 107%
- viability, T/C [30]: 87.7%
- viability, T/C [31]: 85.1%
- viability, T/C [32]: 114%
- viability, T/C [33]: 98.3%
- viability, T/C [34]: 95%
- viability, T/C [35]: 96.9%
- viability, T/C [36]: 86.7%

Structure (SMILES): COc1cccc2c1C(=O)c1c(O)c3c(c(O)c1C2=O)CC(O)(C(=O)CO)CC3OC1CC(N)C(O)C(C)O1 (centres undefined) + CN(C)c1ccc(Nc2c3ccc(NC(=O)CCN4CCCC4)cc3nc3cc(NC(=O)CCN4CCCC4)ccc23)cc1
- pIC50 (second compound 0.0316 µM): 5.18
- pIC50 (second compound 0.1 µM): 5.07
- pIC50 (second compound 0.316 µM): < 5.00
- pIC50 (second compound 1 µM): < 5.00
- pIC50 (second compound 3.16 µM): < 5.00
- pIC50 (second compound 10 µM): < 5.00
- viability, T/C [1]: 98%
- viability, T/C [2]: 88.9%
- viability, T/C [3]: 99.1%
- viability, T/C [4]: 96.3%
- viability, T/C [5]: 71.7%
- viability, T/C [6]: 37.4%
- viability, T/C [7]: 111%
- viability, T/C [8]: 88.3%
- viability, T/C [9]: 77.6%
- viability, T/C [10]: 94.8%
- viability, T/C [11]: 96.2%
- viability, T/C [12]: 42.9%
- viability, T/C [13]: 89.5%
- viability, T/C [14]: 88.5%
- viability, T/C [15]: 101%
- viability, T/C [16]: 102%
- viability, T/C [17]: 94.6%
- viability, T/C [18]: 56.5%
- viability, T/C [19]: 63.7%
- viability, T/C [20]: 86.7%
- viability, T/C [21]: 101%
- viability, T/C [22]: 83.8%
- viability, T/C [23]: 97%
- viability, T/C [24]: 51.5%
- viability, T/C [25]: 74.8%
- viability, T/C [26]: 77.1%
- viability, T/C [27]: 107%
- viability, T/C [28]: 90%
- viability, T/C [29]: 99%
- viability, T/C [30]: 67.3%
- viability, T/C [31]: 94.1%
- viability, T/C [32]: 84.2%
- viability, T/C [33]: 102%
- viability, T/C [34]: 83.3%
- viability, T/C [35]: 81%
- viability, T/C [36]: 58.2%
